Laboratory results reported in article PMC9102847, “7-Aminoalkoxy-Quinazolines from Epigenetic Focused Libraries Are Potent and Selective Inhibitors of DNA Methyltransferase 1” (Molecules, 2022).
Where two headings read alike, the source gives them in different places. Values belong to the compound of their own block, whether it stands above or below them.

Legend:
DNMT3A [1] = target: T1, DNMT3A (Homo sapiens, UniProt Q9Y6K1); experiment: HotSpot radioisotope methyltransferase inhibition assay, DNMT3A; assay type: biochemical
T1 construct: purchased Reaction Biology Corporation
Protocol: The inhibition of the enzymatic activity of DNMT1, DNMT3A, and DNMT3B was tested using the HotSpotSM platform for methyltransferase assays available at Reaction Biology Corporation. HotSpotSM is a low volume radioisotope-based assay that uses tritium-labeled AdoMet (3H-SAM) as a methyl donor. The three test compounds diluted in dimethyl sulfoxide were added using acoustic technology (Echo550, Labcyte, San Jose, CA, USA) into an enzyme/substrate mixture in the nano-liter range. The corresponding reactions were commenced by adding 3H-SAM and incubated at 30 °C. Total final methylations on the substrate (Poly dI-dC in DNMT1, 3A, and 3B assays) were identified by a filter binding method implemented in Reaction Biology. Data analysis was done with Graphed Prism software (La Jolla, CA, USA) for curve fits. The enzymatic inhibition assays were carried out at 1 μM of SAM. In all assays, SAH was used as a standard positive control. The three compounds were tested first with DNMT1 at one 100 μM concentration in duplicate. […] The research group has recently contracted the screening services of Reaction Biology Corporation to identify a novel DNMTi.

DNMT3B [2] = target: T2, DNMT3B (Homo sapiens, UniProt Q9UBC3); set-up: method as in PMID 34790902; conditions: Pappalardi et al.; cited from earlier work
T2 construct: purchased Reaction Biology Corporation

DNMT3B [3] = target: T2, DNMT3B; experiment: HotSpot radioisotope methyltransferase inhibition assay, DNMT3B; assay type: biochemical; conditions: for inhibition of DNMT3B (in words): enzymatic inhibition assays
DNMT1 [4] = target: T3, DNMT1 (Homo sapiens, UniProt P26358); set-up: method as in PMID 29953809; conditions: Figure 1, activity as available in the literature; cited from earlier work
T3 construct: purchased Reaction Biology Corporation

DNMT1 [5] = target: T3, DNMT1; experiment: HotSpot radioisotope methyltransferase inhibition assay, DNMT1; assay type: biochemical; conditions: for relative enzymatic activity of DNMT1 as percentages: 100 μM compound, mean of two measurements ± standard deviation; for IC50: 10-concentration IC50, 1 μM SAM, mean of two measurements; for DNMT1: % inhibition / inhibition at 100 µM: single concentration 100 µM, duplicate, 1 μM SAM
[6] = system: human breast adenocarcinoma (MDA-MB-231) cells; set-up: method as in PMID 21780790; conditions: read-out: cell toxicity EC50; cited from earlier work
[7] = system: H3K9me2 levels in human breast adenocarcinoma (MDA-MB-231) cells; set-up: method as in PMID 21780790; conditions: read-out: potency in reducing H3K9me2 levels; cited from earlier work
G9a [8] = system: G9a; set-up: method as in PMID 21780790; conditions: enzymatic, in vitro; cited from earlier work
G9a [9] = conditions: Figure 1, activity as available in the literature; cited from earlier work
DNMT3B [10] = target: T2, DNMT3B; set-up: method as in PMID 29953809; conditions: Figure 1, activity as available in the literature; cited from earlier work
DNMT3B/3L = system: DNMT3B/3L; set-up: method as in PMID 29953809; conditions: Figure 1, activity as available in the literature; cited from earlier work
DNMT3A/3L = system: DNMT3A/3L; set-up: method as in PMID 29953809; conditions: Figure 1, activity as available in the literature; cited from earlier work
DNMT3A [11] = target: T1, DNMT3A; set-up: method as in PMID 34790902; conditions: Pappalardi et al.; cited from earlier work
[12] = system: human acute myeloid leukemia xenograft; set-up: method as in PMID 29953809; conditions: human acute myeloid leukemia xenograft in a mouse model; cited from earlier work

T1 sequence (Q9Y6K1 whole entry, looked up): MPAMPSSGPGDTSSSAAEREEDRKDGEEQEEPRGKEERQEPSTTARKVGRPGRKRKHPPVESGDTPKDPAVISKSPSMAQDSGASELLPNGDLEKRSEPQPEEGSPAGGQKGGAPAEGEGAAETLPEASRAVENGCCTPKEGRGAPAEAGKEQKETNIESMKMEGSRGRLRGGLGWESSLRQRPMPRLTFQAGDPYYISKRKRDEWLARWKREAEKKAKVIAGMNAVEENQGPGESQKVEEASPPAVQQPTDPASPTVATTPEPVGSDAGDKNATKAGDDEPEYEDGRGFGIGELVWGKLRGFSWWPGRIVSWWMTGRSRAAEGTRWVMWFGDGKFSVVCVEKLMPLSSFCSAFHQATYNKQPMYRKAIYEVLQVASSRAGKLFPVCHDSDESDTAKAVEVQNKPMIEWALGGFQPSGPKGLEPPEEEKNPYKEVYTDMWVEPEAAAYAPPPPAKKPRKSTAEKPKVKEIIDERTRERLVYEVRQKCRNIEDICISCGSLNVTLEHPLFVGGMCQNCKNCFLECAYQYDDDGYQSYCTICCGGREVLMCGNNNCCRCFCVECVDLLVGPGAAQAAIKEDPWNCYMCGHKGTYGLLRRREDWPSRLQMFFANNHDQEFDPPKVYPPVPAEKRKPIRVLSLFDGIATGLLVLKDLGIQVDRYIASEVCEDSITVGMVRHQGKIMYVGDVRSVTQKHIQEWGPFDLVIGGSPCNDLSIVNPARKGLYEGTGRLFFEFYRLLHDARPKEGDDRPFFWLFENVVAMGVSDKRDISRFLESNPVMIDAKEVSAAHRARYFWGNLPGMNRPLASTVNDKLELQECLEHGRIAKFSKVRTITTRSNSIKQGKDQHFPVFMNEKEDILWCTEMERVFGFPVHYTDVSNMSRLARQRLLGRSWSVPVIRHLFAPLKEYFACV
T3 sequence (P26358 whole entry): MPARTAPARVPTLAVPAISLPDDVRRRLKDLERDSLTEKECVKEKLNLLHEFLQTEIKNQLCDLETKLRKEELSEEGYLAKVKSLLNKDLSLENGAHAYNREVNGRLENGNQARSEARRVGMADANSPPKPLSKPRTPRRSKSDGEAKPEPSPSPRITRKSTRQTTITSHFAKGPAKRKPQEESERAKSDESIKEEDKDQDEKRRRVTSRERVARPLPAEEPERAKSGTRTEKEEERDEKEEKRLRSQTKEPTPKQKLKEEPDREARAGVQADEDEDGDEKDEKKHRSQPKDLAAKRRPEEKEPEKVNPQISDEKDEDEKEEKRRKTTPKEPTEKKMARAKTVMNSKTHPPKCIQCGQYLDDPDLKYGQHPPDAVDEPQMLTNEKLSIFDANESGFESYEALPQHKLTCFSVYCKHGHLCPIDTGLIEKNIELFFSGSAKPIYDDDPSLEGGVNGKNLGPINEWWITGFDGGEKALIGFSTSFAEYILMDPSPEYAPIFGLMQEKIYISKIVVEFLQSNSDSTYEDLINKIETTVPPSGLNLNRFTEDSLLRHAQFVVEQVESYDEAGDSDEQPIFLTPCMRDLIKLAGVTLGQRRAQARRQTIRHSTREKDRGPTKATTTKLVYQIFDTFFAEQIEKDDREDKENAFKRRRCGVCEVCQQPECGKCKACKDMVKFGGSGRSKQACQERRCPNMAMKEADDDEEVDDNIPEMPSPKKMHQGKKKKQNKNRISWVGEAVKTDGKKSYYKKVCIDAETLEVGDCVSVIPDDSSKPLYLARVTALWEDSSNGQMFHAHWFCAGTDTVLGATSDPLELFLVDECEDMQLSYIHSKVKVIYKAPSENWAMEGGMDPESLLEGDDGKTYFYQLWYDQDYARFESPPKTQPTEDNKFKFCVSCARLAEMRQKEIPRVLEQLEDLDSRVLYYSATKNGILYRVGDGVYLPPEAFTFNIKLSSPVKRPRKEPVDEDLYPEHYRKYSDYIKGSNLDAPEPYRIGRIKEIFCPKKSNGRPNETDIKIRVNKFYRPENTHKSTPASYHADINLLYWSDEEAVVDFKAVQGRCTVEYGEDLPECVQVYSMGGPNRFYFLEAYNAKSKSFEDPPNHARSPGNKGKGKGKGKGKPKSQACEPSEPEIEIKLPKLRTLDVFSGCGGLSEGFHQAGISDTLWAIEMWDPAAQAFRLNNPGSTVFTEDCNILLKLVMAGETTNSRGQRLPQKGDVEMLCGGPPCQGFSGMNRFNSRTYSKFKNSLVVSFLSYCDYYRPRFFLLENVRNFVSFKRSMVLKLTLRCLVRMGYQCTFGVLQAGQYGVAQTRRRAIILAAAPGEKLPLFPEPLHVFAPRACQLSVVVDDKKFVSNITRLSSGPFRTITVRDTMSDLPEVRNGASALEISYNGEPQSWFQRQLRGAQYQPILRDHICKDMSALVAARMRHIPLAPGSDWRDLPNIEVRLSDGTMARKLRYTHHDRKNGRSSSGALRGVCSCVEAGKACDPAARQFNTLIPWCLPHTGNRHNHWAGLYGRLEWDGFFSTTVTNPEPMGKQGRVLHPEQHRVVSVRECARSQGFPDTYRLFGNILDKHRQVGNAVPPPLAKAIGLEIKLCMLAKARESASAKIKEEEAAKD

- IC50 (DNMT3A [1]): 0.1 µM
- IC50 (DNMT3B [3]): 0.03 µM
SMILES: Nc1ncnc2c1ncn2[C@@H]1O[C@H](CSCC[C@H](N)C(=O)O)[C@@H](O)[C@H]1O [SAH, S-adenosyl-L-homocysteine]
- IC50 (DNMT3B [2]): 0.09 µM

SMILES: COc1cc2nc(N3CCCN(C)CC3)nc(NC3CCN(Cc4ccccc4)CC3)c2cc1OC [compound 9]
- IC50 (DNMT1 [4]): > 10 µM

- IC50 (DNMT3A [1]): 4.87 µM
- relative enzymatic activity of DNMT1 as percentages (DNMT1 [5]): 0.3 ± 0.10%
- IC50 (DNMT1 [5]): 0.03 µM
- DNMT1: % inhibition (DNMT1 [5]): 99.7%
- inhibition at 100 µM (DNMT1 [5]): > 99%
- inhibition of DNMT3B (in words) (DNMT3B [3]): none of them inhibited
- IC50 (DNMT3B [3]; read-out: DNMT3B IC50): > 100 µM
SMILES: COc1cc2c(NC3CCN(C4CCCCC4)CC3)nc(N3CCCN(C(C)C)CC3)nc2cc1OCCCN1CCCCC1 [compound 12]
- EC50 [6]: 3.3 µM
- IC50 [7]: 0.026 µM
- IC50 (G9a [8]): 0.006 µM

SMILES: Cc1cc(Nc2ccc(NC(=O)c3ccc(Nc4ccnc5ccccc45)cc3)cc2)nc(N)n1 [compound 3]
- IC50 (DNMT3B [2]): 7 µM
- IC50 (G9a [9]): > 10 µM

SMILES: COc1ccc(Cl)cc1C(=O)NCCc1ccc(S(=O)(=O)NC(=O)NC2CCCCC2)cc1 [compound 4, Glyburide]
- IC50 (DNMT3B [10]): > 100 µM

SMILES: CCc1c(C#N)c(SC(C(N)=O)c2ccccc2)nc(N2CCC(N)CC2)c1C#N (stereo not drawn) [compound 5]
- IC50 (DNMT3B/3L): > 100 µM
- inhibition of DNMT3B (in words) (DNMT3B [2]): did not inhibit
- IC50 (DNMT3A/3L): > 100 µM
- inhibition of DNMT3A (in words) (DNMT3A [11]): did not inhibit

SMILES: Nc1ncn([C@@H]2O[C@H](CO)[C@@H](O)[C@H]2O)c(=O)n1 [compound 1, 5-azacitidine]
- IC50 (G9a [9]): > 10 µM

SMILES: COc1cc2c(NC3CCN(C(C)C)CC3)cc(C3CCCCC3)nc2cc1OCCCN1CCCC1 [compound 7]
- IC50 (G9a [9]): 0.0007 µM

- IC50 (DNMT3A [1]): 14.7 µM
- relative enzymatic activity of DNMT1 as percentages (DNMT1 [5]): 0.7 ± 0.02%
- IC50 (DNMT1 [5]): 0.081 µM
- DNMT1: % inhibition (DNMT1 [5]): 99.3%
- inhibition at 100 µM (DNMT1 [5]): > 99%
- inhibition of DNMT3B (in words) (DNMT3B [3]): none of them inhibited
- IC50 (DNMT3B [3]; read-out: DNMT3B IC50): > 100 µM
SMILES: COc1cc2c(NC3CCN(CC4CCCCC4)CC3)nc(N3CCCN(C(C)C)CC3)nc2cc1OCCCN1CCCCC1 [compound 13]
- EC50 [6]: 2.8 µM
- IC50 [7]: 0.025 µM
- IC50 (G9a [8]): 0.004 µM

SMILES: COc1cc2c(NC3CCN(C(C)C)CC3)nc(N3CCC(F)(F)CC3)nc2cc1OCCCN1CCCC1 [compound 11]
- IC50 (DNMT1 [4]): > 50 µM

SMILES: Nc1ncn([C@H]2C[C@H](O)[C@@H](CO)O2)c(=O)n1 [compound 2, 5-aza-2′-deoxycytidine]
- IC50 (G9a [9]): > 10 µM

SMILES: COc1cc2c(NC3CCN(C)CC3)cc(-c3ccc(C)o3)nc2cc1OCCCN1CCCC1 [compound 8]
- tumor growth inhibition [12]: 70%

- relative enzymatic activity of DNMT1 as percentages (DNMT1 [5]): 92.6 ± 2.40%
- inhibition at 100 µM (DNMT1 [5]): 7.4%
SMILES: COc1cc2c(Nc3ccc(NC(=O)c4ccccc4)cc3)ncnc2cc1OCCCN1CCOCC1 [compound 14]

SMILES: C[C@@H]1O[C@@H](CC(=O)O)CC2=C1C(=O)c1c(O)cccc1C2=O [compound 6, nanaomycin A]
- IC50 (DNMT1 [4]): > 10 µM
